One experiment has as its target T1, hGIPR (Homo sapiens, UniProt P48546).
T1 construct: expressed in transfected cells
T1 sequence (P48546 22-466): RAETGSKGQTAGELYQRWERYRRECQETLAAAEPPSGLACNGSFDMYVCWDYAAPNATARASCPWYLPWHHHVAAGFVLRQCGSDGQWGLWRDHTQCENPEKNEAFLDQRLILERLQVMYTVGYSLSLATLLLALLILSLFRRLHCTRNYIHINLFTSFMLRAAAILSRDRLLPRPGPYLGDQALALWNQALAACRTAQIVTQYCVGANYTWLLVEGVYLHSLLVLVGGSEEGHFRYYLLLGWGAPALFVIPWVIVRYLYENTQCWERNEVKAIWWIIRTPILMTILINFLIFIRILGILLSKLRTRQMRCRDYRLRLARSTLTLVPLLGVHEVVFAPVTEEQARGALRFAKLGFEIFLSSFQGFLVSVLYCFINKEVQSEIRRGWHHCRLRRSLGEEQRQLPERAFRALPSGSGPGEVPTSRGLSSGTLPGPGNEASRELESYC
Description: Functional cAMP formation (HTRF) in HEK-293 clonal cells expressing hGIPR, 0.1% bovine casein, without or with 1.0% human serum albumin. The experiment is classed as cell-based. The following applies: for EC50: geometric mean, read-out: hGIPR EC50, nM (SEM, n); for Emax: read-out: hGIPR Emax, % ± SEM. Summed up: (§1)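 Readings of the HTRF 665/620 nm ratio, which falls as cAMP rises, were converted to nM cAMP using a standard curve after 30 min peptide exposure at 37° C.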

For experiment [1], the target named is T2, human GLP-1 receptor (hGLP-1R) (Homo sapiens, UniProt P43220).
T2 construct: expressed in transfected cells; crude membranes
Description: [125I]-GLP-1 binding, SPA with membranes of HEK293 cells expressing hGLP-1R. The following applies: human GLP-1R; geometric mean (SEM, n); read-out: Binding Affinity Ki, nM (SEM, n) hGLP-1R.

A further experiment addresses hGLP-1R (Homo sapiens, UniProt P43220). The experiment in a line: Functional cAMP formation (HTRF) in HEK-293 clonal cells expressing hGLP-1R, 0.1% bovine casein, without or with 1.0% human serum albumin. Format: cell-based. The arrangement: expressed in transfected cells. The following applies: for EC50: geometric mean, read-out: hGLP-1R EC50, nM (SEM, n); for Emax: HEK293, 0.1% bovine casein and 1.0% human serum albumin, percent of maximal response to GLP-1(7-36)NH2, read-out: hGLP-1R Emax, % ± SEM. The gist of the method:
as §1
Background: Changes in cAMP serve as a functional read-out for many G protein-coupled receptors.

Another experiment deals with T3, hGCGR (Homo sapiens, UniProt P47871).
T3 construct: expressed in transfected cells
Description: Functional cAMP formation (HTRF) in HEK-293 clonal cells expressing hGCGR, 0.1% bovine casein, without or with 1.0% human serum albumin. The experiment is classed as cell-based. The following applies: geometric mean, read-out: hGCGR EC50, nM (SEM, n). Summed up:
as §1

Experiment [2] addresses T4, human GIP receptor (hGIPR) (Homo sapiens, UniProt P48546).
T4 construct: expressed in transfected cells; crude membranes
T4 sequence (P48546 22-466): T1 sequence (P48546 22-466)
Description: [125I]-GIP binding, SPA with membranes of CHO cells expressing hGIPR. The following applies: human GIPR; geometric mean (SEM, n); read-out: Binding Affinity Ki, nM (SEM, n) hGIPR.

Where [3] appears, read: 0.1% bovine casein and 1.0% human serum albumin, 37° C.
The mark [4] stands for this setting: HEK293, 0.1% bovine casein and 1.0% human serum albumin, 37° C., percent of maximal response to GIP(1-42)NH2.
Where [5] appears, read: HEK293, percent of maximal response to GIP(1-42)NH2, 37° C., 0.1% bovine casein, arithmetic mean.
[6] abbreviates: cAMP, incubated at 37° C., 0.1% bovine casein (no human serum albumin).

Read-outs that look alike come from different tables or passages of the source.

T3 sequence (P47871 26-477): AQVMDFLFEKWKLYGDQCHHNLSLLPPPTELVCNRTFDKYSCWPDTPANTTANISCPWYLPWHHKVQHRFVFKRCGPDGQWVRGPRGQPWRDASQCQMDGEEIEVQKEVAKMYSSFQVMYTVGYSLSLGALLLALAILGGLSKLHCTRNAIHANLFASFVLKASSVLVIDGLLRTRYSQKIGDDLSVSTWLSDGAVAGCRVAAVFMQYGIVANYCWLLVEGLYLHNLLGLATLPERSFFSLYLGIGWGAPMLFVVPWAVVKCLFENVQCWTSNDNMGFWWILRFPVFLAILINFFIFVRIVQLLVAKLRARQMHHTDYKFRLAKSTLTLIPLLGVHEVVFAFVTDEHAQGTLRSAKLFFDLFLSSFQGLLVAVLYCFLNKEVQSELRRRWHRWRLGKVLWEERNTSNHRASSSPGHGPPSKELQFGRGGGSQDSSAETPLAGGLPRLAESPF
Sequence of hGLP-1R (P43220 24-463): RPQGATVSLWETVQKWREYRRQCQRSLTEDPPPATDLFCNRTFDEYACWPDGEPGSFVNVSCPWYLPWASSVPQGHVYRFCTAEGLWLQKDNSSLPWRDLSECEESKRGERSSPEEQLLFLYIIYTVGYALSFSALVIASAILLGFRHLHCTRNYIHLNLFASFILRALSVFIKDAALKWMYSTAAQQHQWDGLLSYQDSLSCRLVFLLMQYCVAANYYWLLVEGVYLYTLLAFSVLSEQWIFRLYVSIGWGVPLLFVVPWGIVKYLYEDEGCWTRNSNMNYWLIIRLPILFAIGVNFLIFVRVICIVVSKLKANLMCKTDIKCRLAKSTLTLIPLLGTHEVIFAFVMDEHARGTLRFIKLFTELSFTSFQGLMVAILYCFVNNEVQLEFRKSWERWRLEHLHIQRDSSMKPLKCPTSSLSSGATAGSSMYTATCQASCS
T2 sequence (P43220 24-463): as above

In the case of `CC[C@H](C)[C@H](NC(=O)[C@H](CC(C)C)NC(=O)[C@](C)(Cc1ccc(O)cc1)NC(=O)[C@@H](CCC(=O)O)NC(=O)[C@@H](NC(=O)[C@H](Cc1ccccc1)NC(=O)[C@H](CCC(=O)O)NC(=O)C(C)(C)NC(=O)[C@H](CCC(N)=O)NC(=O)[C@H](C)NC(=O)[C@H](CCCCNC(=O)COCCOCCNC(=O)COCCOCCNC(=O)CC[C@H](NC(=O)CCCc1ccc(I)cc1)C(=O)O)NC(=O)[C@H](CCCN)NC(=O)[C@H](CC(=O)O)NC(=O)[C@H](CC(C)C)NC(=O)[C@](C)(CC(C)C)NC(=O)[C@@H](NC(=O)[C@H](CO)NC(=O)[C@H](Cc1ccncc1)NC(=O)[C@H](CC(=O)O)NC(=O)[C@H](CO)NC(=O)[C@@H](NC(=O)[C@](C)(Cc1ccccc1F)NC(=O)[C@@H](NC(=O)CNC(=O)[C@H](CCC(=O)O)NC(=O)C(C)(C)NC(=O)[C@@H](N)Cc1ccc(O)cc1)[C@@H](C)O)[C@@H](C)O)[C@@H](C)CC)[C@@H](C)CC)C(=O)N[C@@H](CCC(=O)O)C(=O)NCC(=O)NCC(=O)N[C@@H](CCCCNC(=O)COCCOCCNC(=O)COCCOCCNC(=O)CC[C@H](NC(=O)CCCc1ccc(I)cc1)C(=O)O)C(=O)N[C@@H](CO)C(=O)N[C@@H](CO)C(=O)NCC(=O)N[C@@H](C)C(=O)N1CCC[C@H]1C(=O)N1CCC[C@H]1C(=O)N1CCC[C@H]1C(=O)N[C@@H](CO)C(N)=O` [Example 3], the EC50 at hGIPR (setting [3]) is 0.0971 nM; on hGIPR (setting [6]), 0.0133 nM; on hGLP-1R (setting [3]), 1.05 nM; on hGLP-1R (setting [6]), 0.223 nM; at hGCGR (setting [3]) it was > 9950 nM; on hGCGR (setting [6]), > 9950 nM. Besides, the figures for the Emax on hGIPR (setting [4]) and at hGIPR (setting [5]) were 80% and 95.9 ± 2.95%, respectively. Further, the Ki was 0.471 nM in experiment [1] and 0.0629 nM in experiment [2].

In the case of `CC[C@H](C)[C@H](NC(=O)[C@H](CC(C)C)NC(=O)[C@](C)(Cc1ccc(O)cc1)NC(=O)[C@@H](CCC(=O)O)NC(=O)[C@@H](NC(=O)[C@H](Cc1ccccc1)NC(=O)[C@H](CCC(=O)O)NC(=O)C(C)(C)NC(=O)[C@H](CCC(N)=O)NC(=O)[C@H](C)NC(=O)[C@H](CCCCNC(=O)COCCOCCNC(=O)COCCOCCNC(=O)CC[C@H](NC(=O)CCCCCCCCCCCCC(=O)O)C(=O)O)NC(=O)[C@H](CCCN)NC(=O)[C@H](CC(=O)O)NC(=O)[C@H](CC(C)C)NC(=O)[C@](C)(CC(C)C)NC(=O)[C@@H](NC(=O)[C@H](CO)NC(=O)[C@H](Cc1ccc2ccccc2c1)NC(=O)[C@H](CC(=O)O)NC(=O)[C@H](CO)NC(=O)[C@@H](NC(=O)[C@](C)(Cc1ccccc1F)NC(=O)[C@@H](NC(=O)CNC(=O)[C@H](CCC(=O)O)NC(=O)C(C)(C)NC(=O)[C@@H](N)Cc1ccc(O)cc1)[C@@H](C)O)[C@@H](C)O)[C@@H](C)CC)[C@@H](C)CC)C(=O)N[C@@H](CCC(=O)O)C(=O)NCC(=O)NCC(=O)N[C@@H](CCCCNC(=O)COCCOCCNC(=O)COCCOCCNC(=O)CC[C@H](NC(=O)CCCCCCCCCCCCC(=O)O)C(=O)O)C(=O)N[C@@H](CO)C(=O)N[C@@H](CO)C(=O)NCC(=O)N[C@@H](C)C(=O)N1CCC[C@H]1C(=O)N1CCC[C@H]1C(=O)N1CCC[C@H]1C(=O)N[C@@H](CO)C(N)=O` [Example 57], the figures for the Emax at hGIPR (setting [4]), at hGIPR (setting [5]) and on hGLP-1R (37° C.) were 92.1 ± 5.54%, 91.5 ± 4.94% and 114 ± 7.39%, respectively. Moreover, the EC50 on hGIPR (setting [6]) was 0.0135 nM; on hGLP-1R (setting [6]), 0.14 nM; on hGCGR (setting [3]), > 9950 nM; at hGCGR (setting [6]), > 9950 nM. Also, the figures for the Ki in experiment [1] and in experiment [2] were 4.35 nM and 0.297 nM, respectively.

As for `CCCCCCCCCCCC(=O)N[C@@H](CCC(=O)NCCOCCOCC(=O)NCCOCCOCC(=O)NCCCC[C@H](NC(=O)[C@H](CO)NC(=O)[C@@H]1CCCN1C(=O)[C@@H]1CCCN1C(=O)[C@@H]1CCCN1C(=O)[C@H](C)NC(=O)CNC(=O)[C@H](CO)NC(=O)[C@H](CO)NC(=O)[C@@H]1CCCN1C(=O)CNC(=O)CNC(=O)[C@H](CCC(=O)O)NC(=O)[C@@H](NC(=O)[C@H](CC(C)C)NC(=O)[C@](C)(Cc1ccc(O)cc1)NC(=O)[C@@H](CCC(=O)O)NC(=O)[C@@H](NC(=O)[C@H](Cc1ccccc1)NC(=O)[C@H](CCC(=O)O)NC(=O)C(C)(C)NC(=O)[C@H](CCC(N)=O)NC(=O)[C@H](C)NC(=O)[C@H](CCCCNC(=O)COCCOCCNC(=O)COCCOCCNC(=O)CC[C@H](NC(=O)CCCCCCCCCCC)C(=O)O)NC(=O)[C@H](CCCN)NC(=O)[C@H](CC(=O)O)NC(=O)[C@H](CC(C)C)NC(=O)[C@](C)(CC(C)C)NC(=O)[C@@H](NC(=O)[C@H](CO)NC(=O)[C@H](Cc1ccncc1)NC(=O)[C@H](CC(=O)O)NC(=O)[C@H](CO)NC(=O)[C@@H](NC(=O)[C@](C)(Cc1ccccc1F)NC(=O)[C@@H](NC(=O)CNC(=O)[C@H](CCC(=O)O)NC(=O)C(C)(C)NC(=O)[C@@H](N)Cc1ccc(O)cc1)[C@@H](C)O)[C@@H](C)O)[C@@H](C)CC)[C@@H](C)CC)[C@@H](C)CC)C(N)=O)C(=O)O` [Example 141], the EC50 on hGIPR (setting [3]) is 0.379 nM; at hGLP-1R (setting [3]) it was 5.78 nM; at hGCGR (setting [3]), > 9950 nM; on hGCGR (setting [6]) it was > 9950 nM. The Emax at hGIPR (setting [4]) came to 96 ± 7.42%; at hGIPR (setting [5]), 98.8 ± 1.09%; on hGLP-1R (37° C.), 115 ± 2.04%. For the same compound, the results for the Ki in experiment [1] and in experiment [2] were 0.194 nM and 0.0291 nM, respectively.

Turning to `CCCCCCCCCCCCCCCC(=O)N[C@@H](CCC(=O)NCCOCCOCC(=O)NCCOCCOCC(=O)NCCCC[C@H](NC(=O)[C@H](CCCN)NC(=O)[C@H](CC(=O)O)NC(=O)[C@H](CC(C)C)NC(=O)[C@](C)(CC(C)C)NC(=O)[C@@H](NC(=O)[C@H](CO)NC(=O)[C@H](Cc1ccncc1)NC(=O)[C@H](CC(=O)O)NC(=O)[C@H](CO)NC(=O)[C@@H](NC(=O)[C@](C)(Cc1ccccc1F)NC(=O)[C@@H](NC(=O)CNC(=O)[C@H](CCC(=O)O)NC(=O)C(C)(C)NC(=O)[C@@H](N)Cc1ccc(O)cc1)[C@@H](C)O)[C@@H](C)O)[C@@H](C)CC)C(=O)N[C@@H](C)C(=O)N[C@@H](CCC(N)=O)C(=O)NC(C)(C)C(=O)N[C@@H](CCC(=O)O)C(=O)N[C@@H](Cc1ccccc1)C(=O)N[C@H](C(=O)N[C@H](CCC(=O)O)C(=O)N[C@@](C)(Cc1ccc(O)cc1)C(=O)N[C@@H](CC(C)C)C(=O)N[C@H](C(=O)N[C@@H](CCCCNC(=O)COCCOCCNC(=O)COCCOCCNC(=O)CC[C@H](NC(=O)CCCCCCCCCCCCCCC)C(=O)O)C(=O)NCC(=O)NCC(=O)N1CCC[C@H]1C(=O)N[C@@H](CO)C(=O)N[C@@H](CO)C(=O)NCC(=O)N[C@@H](C)C(=O)N1CCC[C@H]1C(=O)N1CCC[C@H]1C(=O)N1CCC[C@H]1C(=O)N[C@@H](CO)C(N)=O)[C@@H](C)CC)[C@@H](C)CC)C(=O)O` [Example 23], the EC50 was 0.623 nM on hGIPR (setting [3]), 1.98 nM at hGLP-1R (setting [3]), > 9950 nM on hGCGR (setting [3]) and > 9950 nM on hGCGR (setting [6]). Further, the Emax at hGIPR (setting [4]) was 95.3 ± 0.863%. Also, the Ki was determined as 0.251 nM in experiment [1] and 0.0238 nM in experiment [2].

By EC50 is commonly meant the concentration needed to bring the measured effect to its halfway point. By Emax is commonly meant the maximal effect, on the per cent scale that the assay sets. One may read the Ki as the equilibrium dissociation constant of an inhibitor or competing ligand from its target.

The values are drawn from patent publication US20230265151A1, “GIP/GLP1 CO-AGONIST COMPOUNDS” (priority 2020, published 2023).
